Reference: patent US20100203104A1, “DELIVERY SYSTEM FOR RISPERIDONE” (N.V. Organon, priority 2006, published 2010)

Experiment: Solubility of risperidone in ethylene vinyl acetate copolymer
Type: physicochemical
Conditions: ethylene vinyl acetate copolymer having a vinyl acetate content of 28%
Experimental: With risperidone is meant 3-[2-[4-(6-fluoro-1,2-benzisoxazol-3-yl)-1-piperidinyl]ethyl]-6,7,8,9-tetrahydro-2-methyl-4H-pyrido[1,2-a]pyrimidin-4-one. […] Solubility is measured as described in Laarhoven, J. A. H., et al. (2002), International Journal of Pharmaceutics 232, page 165.

With `Cc1nc2n(c(=O)c1CCN1CCC(c3noc4cc(F)ccc34)CC1)CCCC2` [Risperidone, 3-[2-[4-(6-fluoro-1,2-benzisoxazol-3-yl)-1-piperidinyl]ethyl]-6,7,8,9-tetrahydro-2-methyl-4H-pyrido[1,2-a]pyrimidin-4-one] the “solubility in ethylene vinyl acetate copolymer” value was 0.1 wt %.
